One data set has as its target GLP-1R (Homo sapiens, UniProt P43220). The data set is described as follows: GLP-1 receptor-mediated cAMP induction, luciferase reporter gene antagonism assay. It is filed as cell-based. Also noted: host or cells: HEK 293. The conditions noted are these: antagonism of 0.05 nM GLP-1, HEK 293 cells. The method, then: GLP-1 Receptor-Mediated cAMP Induction The ability of peptides to stimulate or block cAMP induction at the GLP-1 receptor was examined by a luciferase-based reporter gene assay. Cotransfection of HEK 293 cells with the human GLP-1 receptor (Open Biosystems) and a cAMPinducible (cAMPresponsive element) luciferase gene constituted the cellular construct where receptor activation could be measured. Bioassays were performed by first serum depriving the cells for 16 h in 0.25% bovine growth serum (HyClone)-supplemented Dulbecco's modified Eagle's medium (Invitrogen) and then adding serial dilutions of the peptides over the appropriate concentration ranges in 96-well poly-D-lysine-coated plates (BD Biosciences). For antagonism assays, a constant concentration of GLP-1 (0.05 nM) was added to the assay plate after the diluted peptides. Incubation continued for 5 h at 37° C., 5% CO2 and was followed by the addition of an equivalent volume (100 μL) of LucLite luminescence substrate reagent (Perkin-Elmer). MicroBeta 1450 liquid scintillation counting (Perkin-Elmer) quantified the luminescence signal in counts per second (cps) after shaking the plate at 600 rpm for 3 min. Data was plotted using Origin software (OriginLab) and the effective concentration 50 (EC50) or inhibitory concentration 50 (IC50) was determined by sigmoidal fitting. Potency was determined by comparative analysis of relative EC50 or IC50 values. Each experiment was repeated at least three times with each sample assayed in duplicate.
A general note: Reporter assays use an easily measured gene product as a stand-in for the process of interest.

Another data set can be described thus: Solubility in buffer. To be noted: 80 mM ammonium bicarbonate buffer.
The mark [1] stands for this setting: Table 2, C16 linker variants of 9-40amide Jant4 K40[X], read-out: Biactivity IC50.
Setting [2] is: pH 7.7, Solubility [mg/mL] 80 mM AmBicarb pH7.7, Table 2, 80 mM AmBicarb pH7.7.

Where two headings read alike, the source gives them in different places. Starred links: 1 amine or outer side, 2 acyl side, 3 side chain; linkers in the order of their positions; H or OH if unused. Residues, ends and D or L forms follow the SMILES beside them. Groups on a side chain read outwards from the residue. *: point of attachment. C18 diacid = O=C(O)CCCCCCCCCCCCCCCCC(=O)*; γGlu = O=C(O)[C@H](CCC(=O)[*:2])N[*:1]; Palmitoyl = CCCCCCCCCCCCCCCC(=O)*; AEEA = NCCOCCOCC(=O)O

Usually IC50 stands for the concentration at which inhibition is half-maximal. Broadly, the solubility is the dissolved amount per volume that the medium holds.

Sequence of GLP-1R (P43220 24-463): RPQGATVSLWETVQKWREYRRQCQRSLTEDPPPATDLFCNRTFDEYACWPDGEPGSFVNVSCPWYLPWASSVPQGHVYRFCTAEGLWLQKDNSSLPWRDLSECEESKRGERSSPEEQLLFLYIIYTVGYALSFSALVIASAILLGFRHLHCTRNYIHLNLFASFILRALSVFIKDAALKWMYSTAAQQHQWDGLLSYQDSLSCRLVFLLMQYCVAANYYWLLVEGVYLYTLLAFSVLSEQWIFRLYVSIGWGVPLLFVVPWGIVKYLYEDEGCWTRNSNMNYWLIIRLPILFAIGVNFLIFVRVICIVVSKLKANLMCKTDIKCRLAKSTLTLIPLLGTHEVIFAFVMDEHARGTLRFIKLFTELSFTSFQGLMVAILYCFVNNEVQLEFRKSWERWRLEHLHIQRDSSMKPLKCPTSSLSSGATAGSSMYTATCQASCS

As to `CC[C@H](C)[C@H](NC(=O)[C@H](Cc1ccccc1)NC(=O)[C@H](CCC(=O)O)NC(=O)[C@H](CCCNC(=N)N)NC(=O)[C@@H](NC(=O)[C@H](C)NC(=O)[C@H](CCC(N)=O)NC(=O)[C@H](CCC(=O)O)NC(=O)[C@H](CCC(=O)O)NC(=O)[C@H](CC(C)C)NC(=O)[C@H](Cc1ccc(O)cc1)NC(=O)[C@H](CO)NC(=O)[C@H](CO)NC(=O)[C@@H](NC(=O)[C@@H](N)CC(=O)O)C(C)C)C(C)C)C(=O)N[C@@H](C)C(=O)N[C@@H](Cc1c[nH]c2ccccc12)C(=O)N[C@@H](CC(C)C)C(=O)N[C@H](C(=O)N[C@@H](CCCCN)C(=O)NCC(=O)NCC(=O)N1CCC[C@H]1C(=O)N[C@@H](CO)C(=O)N[C@@H](CO)C(=O)NCC(=O)N[C@@H](C)C(=O)N1CCC[C@H]1C(=O)N1CCC[C@H]1C(=O)N1CCC[C@H]1C(=O)N[C@@H](CO)C(=O)N[C@@H](CCCCNC(=O)CCCCCCCCCCCCCCCCC(=O)O)C(N)=O)C(C)C` [compound 63] (H-DVSSYLEEQAVREFIAWLVKGGPSSGAPPPSK(C18 diacid)-NH2; N-terminus assumed), the IC50 on GLP-1R (setting [1]) came to 114 nM. In addition, the solubility in the data set “Solubility in buffer” (setting [2]) was more than 25 mg/mL.

As for `CC[C@H](C)[C@H](NC(=O)[C@H](Cc1ccccc1)NC(=O)[C@H](CCC(=O)O)NC(=O)[C@H](CCCNC(=N)N)NC(=O)[C@@H](NC(=O)[C@H](C)NC(=O)[C@H](CCC(N)=O)NC(=O)[C@H](CCC(=O)O)NC(=O)[C@H](CCC(=O)O)NC(=O)[C@H](CC(C)C)NC(=O)[C@H](Cc1ccc(O)cc1)NC(=O)[C@H](CO)NC(=O)[C@H](CO)NC(=O)[C@@H](NC(=O)[C@@H](N)CC(=O)O)C(C)C)C(C)C)C(=O)N[C@@H](C)C(=O)N[C@@H](Cc1c[nH]c2ccccc12)C(=O)N[C@@H](CC(C)C)C(=O)N[C@H](C(=O)N[C@@H](CCCCN)C(=O)NCC(=O)NCC(=O)N1CCC[C@H]1C(=O)N[C@@H](CO)C(=O)N[C@@H](CO)C(=O)NCC(=O)N[C@@H](C)C(=O)N1CCC[C@H]1C(=O)N1CCC[C@H]1C(=O)N1CCC[C@H]1C(=O)N[C@@H](CO)C(=O)N[C@@H](CCCCNC(=O)CC[C@H](NC(=O)CC[C@H](NC(=O)CCCCCCCCCCCCCCCCC(=O)O)C(=O)O)C(=O)O)C(N)=O)C(C)C` [compound 64] (H-DVSSYLEEQAVREFIAWLVKGGPSSGAPPPSK([γGlu-γGlu-C18 diacid])-NH2; N-terminus assumed), on GLP-1R (setting [1]), the IC50 was found to be 841 nM. In the data set “Solubility in buffer” (setting [2]), this molecule displayed a solubility of more than 25 mg/mL.

For `CC[C@H](C)[C@H](NC(=O)[C@H](Cc1ccccc1)NC(=O)[C@H](CCC(=O)O)NC(=O)[C@H](CCCNC(=N)N)NC(=O)[C@@H](NC(=O)[C@H](C)NC(=O)[C@H](CCC(N)=O)NC(=O)[C@H](CCC(=O)O)NC(=O)[C@H](CCC(=O)O)NC(=O)[C@H](CC(C)C)NC(=O)[C@H](Cc1ccc(O)cc1)NC(=O)[C@H](CO)NC(=O)[C@H](CO)NC(=O)[C@@H](NC(=O)[C@@H](N)CC(=O)O)C(C)C)C(C)C)C(=O)N[C@@H](C)C(=O)N[C@@H](Cc1c[nH]c2ccccc12)C(=O)N[C@@H](CC(C)C)C(=O)N[C@H](C(=O)N[C@@H](CCCCN)C(=O)NCC(=O)NCC(=O)N1CCC[C@H]1C(=O)N[C@@H](CO)C(=O)N[C@@H](CO)C(=O)NCC(=O)N[C@@H](C)C(=O)N1CCC[C@H]1C(=O)N1CCC[C@H]1C(=O)N1CCC[C@H]1C(=O)N[C@@H](CO)C(=O)N[C@@H](CCCCNC(=O)CC[C@H](NC(=O)CC[C@H](NC(=O)CC[C@H](NC(=O)CC[C@H](NC(=O)CCCCCCCCCCCCCCCCC(=O)O)C(=O)O)C(=O)O)C(=O)O)C(=O)O)C(N)=O)C(C)C` [compound 65] (H-DVSSYLEEQAVREFIAWLVKGGPSSGAPPPSK([γGlu-γGlu-γGlu-γGlu-C18 diacid])-NH2; N-terminus assumed), the IC50 at GLP-1R (setting [1]) is 1070 nM. In addition, the solubility in the data set “Solubility in buffer” (setting [2]) is more than 25 mg/mL.

In the case of `CC[C@H](C)[C@H](NC(=O)[C@H](Cc1ccccc1)NC(=O)[C@H](CCC(=O)O)NC(=O)[C@H](CCCNC(=N)N)NC(=O)[C@@H](NC(=O)[C@H](C)NC(=O)[C@H](CCC(N)=O)NC(=O)[C@H](CCC(=O)O)NC(=O)[C@H](CCC(=O)O)NC(=O)[C@H](CC(C)C)NC(=O)[C@H](Cc1ccc(O)cc1)NC(=O)[C@H](CO)NC(=O)[C@H](CO)NC(=O)[C@@H](NC(=O)[C@@H](N)CC(=O)O)C(C)C)C(C)C)C(=O)N[C@@H](C)C(=O)N[C@@H](Cc1c[nH]c2ccccc12)C(=O)N[C@@H](CC(C)C)C(=O)N[C@H](C(=O)N[C@@H](CCCCN)C(=O)NCC(=O)NCC(=O)N1CCC[C@H]1C(=O)N[C@@H](CO)C(=O)N[C@@H](CO)C(=O)NCC(=O)N[C@@H](C)C(=O)N1CCC[C@H]1C(=O)N1CCC[C@H]1C(=O)N1CCC[C@H]1C(=O)N[C@@H](CO)C(=O)N[C@@H](CCCCNC(=O)CC[C@H](NC(=O)CC[C@H](NC(=O)CC[C@H](NC(=O)CC[C@H](NC(=O)CC[C@H](NC(=O)CC[C@H](NC(=O)CCCCCCCCCCCCCCCCC(=O)O)C(=O)O)C(=O)O)C(=O)O)C(=O)O)C(=O)O)C(=O)O)C(N)=O)C(C)C` [compound 66] (H-DVSSYLEEQAVREFIAWLVKGGPSSGAPPPSK([γGlu-γGlu-γGlu-γGlu-γGlu-γGlu-C18 diacid])-NH2; N-terminus assumed), on GLP-1R (setting [1]), the IC50 was determined as 1460 nM. The molecule also had a solubility in the data set “Solubility in buffer” (setting [2]) of more than 25 mg/mL.

Consider `CC[C@H](C)[C@H](NC(=O)[C@H](Cc1ccccc1)NC(=O)[C@H](CCC(=O)O)NC(=O)[C@H](CCCNC(=N)N)NC(=O)[C@@H](NC(=O)[C@H](C)NC(=O)[C@H](CCC(N)=O)NC(=O)[C@H](CCC(=O)O)NC(=O)[C@H](CCC(=O)O)NC(=O)[C@H](CC(C)C)NC(=O)[C@H](Cc1ccc(O)cc1)NC(=O)[C@H](CO)NC(=O)[C@H](CO)NC(=O)[C@@H](NC(=O)[C@@H](N)CC(=O)O)C(C)C)C(C)C)C(=O)N[C@@H](C)C(=O)N[C@@H](Cc1c[nH]c2ccccc12)C(=O)N[C@@H](CC(C)C)C(=O)N[C@H](C(=O)N[C@@H](CCCCN)C(=O)NCC(=O)NCC(=O)N1CCC[C@H]1C(=O)N[C@@H](CO)C(=O)N[C@@H](CO)C(=O)NCC(=O)N[C@@H](C)C(=O)N1CCC[C@H]1C(=O)N1CCC[C@H]1C(=O)N1CCC[C@H]1C(=O)N[C@@H](CO)C(=O)N[C@@H](CCCCNC(=O)COCCOCCNC(=O)COCCOCCNC(=O)CC[C@H](NC(=O)CCCCCCCCCCCCCCCCC(=O)O)C(=O)O)C(N)=O)C(C)C` [compound 67] (H-DVSSYLEEQAVREFIAWLVKGGPSSGAPPPSK([AEEA-AEEA-γGlu-C18 diacid])-NH2), for which, on GLP-1R (setting [1]), the IC50 was found to be 579 nM. The same molecule registered a solubility in the data set “Solubility in buffer” (setting [2]) of more than 25 mg/mL.

Turning to `CC[C@H](C)[C@H](NC(=O)[C@H](Cc1ccccc1)NC(=O)[C@H](CCC(=O)O)NC(=O)[C@H](CCCNC(=N)N)NC(=O)[C@@H](NC(=O)[C@H](C)NC(=O)[C@H](CCC(N)=O)NC(=O)[C@H](CCC(=O)O)NC(=O)[C@H](CCC(=O)O)NC(=O)[C@H](CC(C)C)NC(=O)[C@H](Cc1ccc(O)cc1)NC(=O)[C@H](CO)NC(=O)[C@H](CO)NC(=O)[C@@H](NC(=O)[C@@H](N)CC(=O)O)C(C)C)C(C)C)C(=O)N[C@@H](C)C(=O)N[C@@H](Cc1c[nH]c2ccccc12)C(=O)N[C@@H](CC(C)C)C(=O)N[C@H](C(=O)N[C@@H](CCCCN)C(=O)NCC(=O)NCC(=O)N1CCC[C@H]1C(=O)N[C@@H](CO)C(=O)N[C@@H](CO)C(=O)NCC(=O)N[C@@H](C)C(=O)N1CCC[C@H]1C(=O)N1CCC[C@H]1C(=O)N1CCC[C@H]1C(=O)N[C@@H](CO)C(=O)N[C@@H](CCCCNC(=O)COCCOCCNC(=O)CC[C@H](NC(=O)CCCCCCCCCCCCCCCCC(=O)O)C(=O)O)C(N)=O)C(C)C` [compound 68] (H-DVSSYLEEQAVREFIAWLVKGGPSSGAPPPSK([AEEA-γGlu-C18 diacid])-NH2; N-terminus assumed), the IC50 at GLP-1R (setting [1]) worked out at 718 nM. This molecule also yielded a solubility in the data set “Solubility in buffer” (setting [2]) of more than 25 mg/mL.

Regarding `CCCCCCCCCCCCCCCC(=O)NCCCC[C@H](NC(=O)[C@H](CO)NC(=O)[C@@H]1CCCN1C(=O)[C@@H]1CCCN1C(=O)[C@@H]1CCCN1C(=O)[C@H](C)NC(=O)CNC(=O)[C@H](CO)NC(=O)[C@H](CO)NC(=O)[C@@H]1CCCN1C(=O)CNC(=O)CNC(=O)[C@H](CCCNC(=N)N)NC(=O)[C@@H](NC(=O)[C@H](CC(C)C)NC(=O)[C@H](Cc1c[nH]c2ccccc12)NC(=O)[C@H](C)NC(=O)[C@@H](NC(=O)[C@H](Cc1ccccc1)NC(=O)[C@H](CCC(=O)O)NC(=O)[C@H](CCCNC(=N)N)NC(=O)[C@@H](NC(=O)[C@H](C)NC(=O)[C@H](CCC(=O)O)NC(=O)[C@H](CCC(=O)O)NC(=O)[C@H](CCC(=O)O)NC(=O)[C@H](CC(C)C)NC(=O)[C@H](Cc1ccc(O)cc1)NC(=O)[C@H](CO)NC(=O)[C@H](CO)NC(=O)[C@@H](NC(=O)[C@@H](N)CC(=O)O)C(C)C)C(C)C)[C@@H](C)CC)C(C)C)C(N)=O` [compound 71] (H-DVSSYLEEEAVREFIAWLVRGGPSSGAPPPSK(Palmitoyl)-NH2; N-terminus assumed), on GLP-1R (Table 3, amino acid substitution variants of Jant4-K40, read-out: Bioactivity IC50), the IC50 worked out at 18 nM. The solubility in the data set “Solubility in buffer” (pH 7.7) is more than 20 mg/mL.

The values are drawn from patent US20240058422A1, “GLUCAGON-LIKE PEPTIDE-1 RECEPTOR ANTAGONISTS” (INDIANA UNIVERSITY RESEARCH AND TECHNOLOGY CORPORATION, priority 2022, published 2024).
